The numbers were not newly measured in patent US11191839B2, “Composition for treatment of infertility in a subject” (priority 2015, dated 2021), which cites them from elsewhere.

The series concerns couples with unexplained infertility. Particulars: pertubation with low doses before artificial insemination; Edelstam et al. 2008.

With `CCN(CC)CC(=O)Nc1c(C)cccc1C` [lidocaine, Lidocaine], the Pregnancy rates result is “increase pregnancy rates”.
